How the values were obtained:
[1] = particle size measurement by laser diffraction (Helios-Sympatec); assay type: physicochemical; settings: for Particle size distribution: Table 3, overall range
Description: Polymorph B has a narrow particle size distribution: d10-d90=1.8 μm-15.9 μm. The average particle size is 6.7 μm. Particle size measurements were carried out by means of laser diffraction spectra using the Helios-Sympatec system: dry disperser RODOS; focal length 50 mm.

[2] = stability of the crystalline form during drying and storage, chemical stability; assay type: physicochemical
From the text: Polymorph B has a crystalline structure and high purity. Owing to the crystalline structure, polymorph B is stable during drying and storage. No phase transitions and no secondary aggregations are to be observed.
Surface phenomena such as electrostatic charging, adhesion, adsorption etc. occur to a distinctly smaller extent by comparison with polymorph A. The crystal structure additionally results in a high chemical stability. Owing to the narrow particle size distribution compared with polymorph A, it is possible to employ polymorph B directly for producing pharmaceutical formulations. An additional grinding step is unnecessary.

[3] = target: cyclooxygenase (CO) and lipoxygenase (LO); assay: inhibitory effect on the enzymes cyclooxygenase and lipoxygenase; assay type: biochemical; settings: ratio of IC50 lipoxygenase to IC50 cyclooxygenase
From the text: It is notable for a strong analgesic effect and for a similar inhibitory effect on the enzymes cyclooxygenase (CO) and lipoxygenase (LO) (IC50LO/IC50CO˜1). It can therefore be used in the treatment of disorders associated with a change in arachidonic acid metabolism. Particular mention should be made of rheumatoid diseases and the prevention of allergy-induced disorders. […] In addition, it can be used for the treatment of hypercholesterolaemia.

CC1(C)Cc2c(-c3ccccc3)c(-c3ccc(Cl)cc3)c(CC(=O)O)n2C1 [Polymorph A, 6-(4-chlorophenyl)-2,2-dimethyl-7-phenyl-2,3-dihydro-1H-pyrrolizin-5-ylacetic acid]
Particle size distribution [1]: 2-500 μm

CC1(C)Cc2c(-c3ccccc3)c(-c3ccc(Cl)cc3)c(CC(=O)O)n2C1 [Polymorph B, 6-(4-chlorophenyl)-2,2-dimethyl-7-phenyl-2,3-dihydro-1H-pyrrolizin-5-ylacetic acid]
Particle size distribution [1]: 0.5-70 μm
average particle size ([1]; laser diffraction): 6.7 μm
particle size distribution d10 ([1]; laser diffraction, dry disperser RODOS, focal length 50 mm): 1.8 μm
stability during drying and storage ([2]; no phase transitions and no secondary aggregations observed): stable
chemical stability ([2]; resulting from the crystal structure): high
IC50LO/IC50CO [3]: ~1
